From PubChem BioAssay (NCI)
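The compound was tested at five concentrations on cells cultured in 96-well plates, with a 48-hour exposure period. The concentration for 50% growth inhibition is given as GI50. TGI marks complete inhibition of growth.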

Legend:
Assay in all cases: NCI-60 cell line screen, 48 h
786-0 renal = tested on: 786-0 renal
A498 renal = tested on: A498 renal
A549 NSCLC = tested on: A549 NSCLC
ACHN renal = tested on: ACHN renal
BT-549 breast = tested on: BT-549 breast
CAKI-1 renal = tested on: CAKI-1 renal
CCRF-CEM leukemia = tested on: CCRF-CEM leukemia
COLO 205 colon = tested on: COLO 205 colon
DU-145 prostate = tested on: DU-145 prostate
EKVX NSCLC = tested on: EKVX NSCLC
HCC-2998 colon = tested on: HCC-2998 colon
HCT-116 colon = tested on: HCT-116 colon
HCT-15 colon = tested on: HCT-15 colon
HL-60(TB) leukemia = tested on: HL-60(TB) leukemia
HOP-62 NSCLC = tested on: HOP-62 NSCLC
HOP-92 NSCLC = tested on: HOP-92 NSCLC
HS 578T breast = tested on: HS 578T breast
HT29 colon = tested on: HT29 colon
IGROV1 ovarian = tested on: IGROV1 ovarian
K-562 leukemia = tested on: K-562 leukemia
KM12 colon = tested on: KM12 colon
LOX IMVI melanoma = tested on: LOX IMVI melanoma
M14 melanoma = tested on: M14 melanoma
MALME-3M melanoma = tested on: MALME-3M melanoma
MCF7 breast = tested on: MCF7 breast
MDA-MB-231 breast = tested on: MDA-MB-231 breast
MDA-MB-435 = tested on: MDA-MB-435
MOLT-4 leukemia = tested on: MOLT-4 leukemia
NCI-H226 lung = tested on: NCI-H226 lung
NCI-H23 lung = tested on: NCI-H23 lung
NCI-H460 lung = tested on: NCI-H460 lung
NCI-H522 lung = tested on: NCI-H522 lung
NCI/ADR-RES ovarian = tested on: NCI/ADR-RES ovarian
OVCAR-3 ovarian = tested on: OVCAR-3 ovarian
OVCAR-4 ovarian = tested on: OVCAR-4 ovarian
OVCAR-5 ovarian = tested on: OVCAR-5 ovarian
OVCAR-8 ovarian = tested on: OVCAR-8 ovarian
PC-3 prostate = tested on: PC-3 prostate
RPMI-8226 leukemia = tested on: RPMI-8226 leukemia
RXF 393 renal = tested on: RXF 393 renal
SF-268 CNS = tested on: SF-268 CNS
SF-295 CNS = tested on: SF-295 CNS
SF-539 CNS = tested on: SF-539 CNS
SK-MEL-2 melanoma = tested on: SK-MEL-2 melanoma
SK-MEL-28 melanoma = tested on: SK-MEL-28 melanoma
SK-MEL-5 melanoma = tested on: SK-MEL-5 melanoma
SK-OV-3 ovarian = tested on: SK-OV-3 ovarian
SN12C renal = tested on: SN12C renal
SNB-19 CNS = tested on: SNB-19 CNS
SNB-75 CNS = tested on: SNB-75 CNS
SR leukemia = tested on: SR leukemia
SW-620 colon = tested on: SW-620 colon
T-47D breast = tested on: T-47D breast
TK-10 renal = tested on: TK-10 renal
U251 CNS = tested on: U251 CNS
UACC-257 melanoma = tested on: UACC-257 melanoma
UACC-62 melanoma = tested on: UACC-62 melanoma
UO-31 renal = tested on: UO-31 renal

Compound: NC(=O)C1(N2CCCCC2)CCN(CCCC(=O)c2ccc(F)cc2)CC1
- GI50 (786-0 renal): 4.59 µM
- TGI (786-0 renal): 43.2 µM
- GI50 (A498 renal): 2.72 µM
- TGI (A498 renal): 11.4 µM
- GI50 (A549 NSCLC): 10.4 µM
- TGI (A549 NSCLC): > 100 µM
- GI50 (ACHN renal): 12.2 µM
- TGI (ACHN renal): > 100 µM
- GI50 (BT-549 breast): 0.0443 µM
- TGI (BT-549 breast): 14.1 µM
- GI50 (CAKI-1 renal): 26.6 µM
- TGI (CAKI-1 renal): > 100 µM
- GI50 (CCRF-CEM leukemia): 0.121 µM
- GI50 (COLO 205 colon): 0.715 µM
- TGI (COLO 205 colon): 6.89 µM
- GI50 (DU-145 prostate): 2.83 µM
- TGI (DU-145 prostate): > 25.6 µM
- GI50 (EKVX NSCLC): 6.01 µM
- TGI (EKVX NSCLC): > 100 µM
- GI50 (HCC-2998 colon): 1.78 µM
- TGI (HCC-2998 colon): 6.19 µM
- GI50 (HCT-116 colon): 0.777 µM
- TGI (HCT-116 colon): > 100 µM
- GI50 (HCT-15 colon): 24.7 µM
- TGI (HCT-15 colon): > 100 µM
- GI50 (HL-60(TB) leukemia): 0.801 µM
- TGI (HL-60(TB) leukemia): 4.19 µM
- GI50 (HOP-62 NSCLC): 3.41 µM
- TGI (HOP-62 NSCLC): > 100 µM
- GI50 (HOP-92 NSCLC): 0.17 µM
- TGI (HOP-92 NSCLC): 51.4 µM
- GI50 (HS 578T breast): 2.37 µM
- TGI (HS 578T breast): > 100 µM
- GI50 (HT29 colon): 0.818 µM
- TGI (HT29 colon): > 20 µM
- GI50 (IGROV1 ovarian): 7.28 µM
- TGI (IGROV1 ovarian): > 100 µM
- GI50 (K-562 leukemia): 0.28 µM
- TGI (K-562 leukemia): > 100 µM
- GI50 (KM12 colon): 1.39 µM
- TGI (KM12 colon): 67.6 µM
- GI50 (LOX IMVI melanoma): 0.254 µM
- TGI (LOX IMVI melanoma): > 100 µM
- GI50 (M14 melanoma): 2.28 µM
- TGI (M14 melanoma): 7.72 µM
- GI50 (MALME-3M melanoma): 0.264 µM
- TGI (MALME-3M melanoma): > 100 µM
- GI50 (MCF7 breast): 0.108 µM
- TGI (MCF7 breast): > 100 µM
- GI50 (MDA-MB-231 breast): 3.56 µM
- TGI (MDA-MB-231 breast): > 71.8 µM
- GI50 (MDA-MB-435): 0.07 µM
- TGI (MDA-MB-435): 0.396 µM
- GI50 (MOLT-4 leukemia): 1.16 µM
- TGI (MOLT-4 leukemia): > 81.6 µM
- GI50 (NCI-H226 lung): 2.34 µM
- TGI (NCI-H226 lung): 8.81 µM
- GI50 (NCI-H23 lung): 1.08 µM
- TGI (NCI-H23 lung): > 20.1 µM
- GI50 (NCI-H460 lung): 2.7 µM
- TGI (NCI-H460 lung): > 100 µM
- GI50 (NCI-H522 lung): 0.0965 µM
- GI50 (NCI/ADR-RES ovarian): 29 µM
- TGI (NCI/ADR-RES ovarian): > 100 µM
- GI50 (OVCAR-3 ovarian): 0.117 µM
- TGI (OVCAR-3 ovarian): 1.58 µM
- GI50 (OVCAR-4 ovarian): 8.72 µM
- TGI (OVCAR-4 ovarian): > 100 µM
- GI50 (OVCAR-5 ovarian): 6.96 µM
- TGI (OVCAR-5 ovarian): > 100 µM
- GI50 (OVCAR-8 ovarian): 4.91 µM
- TGI (OVCAR-8 ovarian): > 100 µM
- GI50 (PC-3 prostate): 2.33 µM
- TGI (PC-3 prostate): > 100 µM
- GI50 (RPMI-8226 leukemia): 0.208 µM
- TGI (RPMI-8226 leukemia): > 100 µM
- GI50 (RXF 393 renal): 2.32 µM
- TGI (RXF 393 renal): 7.38 µM
- GI50 (SF-268 CNS): 2.6 µM
- TGI (SF-268 CNS): > 70.9 µM
- GI50 (SF-295 CNS): 2.7 µM
- TGI (SF-295 CNS): > 100 µM
- GI50 (SF-539 CNS): 1.42 µM
- TGI (SF-539 CNS): 13.6 µM
- GI50 (SK-MEL-2 melanoma): 0.0925 µM
- TGI (SK-MEL-2 melanoma): > 100 µM
- GI50 (SK-MEL-28 melanoma): 1.08 µM
- TGI (SK-MEL-28 melanoma): > 100 µM
- GI50 (SK-MEL-5 melanoma): 0.158 µM
- TGI (SK-MEL-5 melanoma): 12.6 µM
- GI50 (SK-OV-3 ovarian): 3.26 µM
- TGI (SK-OV-3 ovarian): 35.3 µM
- GI50 (SN12C renal): 5.24 µM
- TGI (SN12C renal): > 100 µM
- GI50 (SNB-19 CNS): 2.86 µM
- TGI (SNB-19 CNS): > 100 µM
- GI50 (SNB-75 CNS): 0.147 µM
- TGI (SNB-75 CNS): > 100 µM
- GI50 (SR leukemia): 0.0761 µM
- GI50 (SW-620 colon): 0.173 µM
- TGI (SW-620 colon): > 100 µM
- GI50 (T-47D breast): > 100 µM
- TGI (T-47D breast): > 100 µM
- GI50 (TK-10 renal): > 26 µM
- TGI (TK-10 renal): > 100 µM
- GI50 (U251 CNS): 0.263 µM
- TGI (U251 CNS): > 100 µM
- TGI (UACC-257 melanoma): > 100 µM
- GI50 (UACC-62 melanoma): 0.219 µM
- TGI (UACC-62 melanoma): > 100 µM
- GI50 (UO-31 renal): 17.2 µM
- TGI (UO-31 renal): > 100 µM
